Measurements from patent US4006144A, “10,11-Dihydro-dibenzo(b,f)thiepin derivatives” (Hoffmann-La Roche Inc., priority 1972, dated 1977).
Counter-ions that a name gives are not always drawn. Like-named read-outs stand apart in the source and are kept apart here.

Columns and labels:
Type in all cases: in vivo
mice = assay: Rotating rod test; conditions: for ED50: Mus musculus, po, read-out: ED50 (dose which reduces the holding time to 50%)
Description: In the rotating rod test, the ability of mice to achieve a coordinated, motoric performance is tested. After the peroral administration of the test substance, mice are placed on a horizontal, slowly rotating rod and the time until the mice fall off the rod is measured.

rats [1] = assay: Pole climbing test; conditions: for Quotient ED10 (Blocking of the unconditioned reaction)/ED50 (Blocking of the conditioned reaction): higher = greater selectivity of neuroleptic action
Description: This test gives information about behaviour reactions of rats. Rats are trained to avoid, by climbing up a vertical pole in the test chamber, an electrical impulse (unconditioned impulse) released via the wire-latticed floor some seconds after an acoustic signal (conditioned impulse).
The blocking of the conditioned reaction is determined by the parameter ED50 (mg/kg p.o.); the blocking of the unconditioned reaction is determined by the parameter ED10 (mg/kg p.o.).
The parameter ED50 (blocking of the conditioned reaction) gives a measure of the neuroleptic activity strength of the test substance. The quotient ED10 (blocking of the unconditioned reaction)/ED50 (blocking of the conditioned reaction) gives a measure of the quality of action of the test substance, in that with increasing quotient a greater selectivity of the neuroleptic action (slighter neurotoxic side-effects) is present.

homovanillic acid (HVA) = assay: Determination of homovanillic acid (turnover of dopamine in the basal ganglia); conditions: rats; for Increase of HVA: 2 hours, untreated rats fixed at 100%
Description: Rats are injected with the derivative to be tested 2 hours before they are killed.
Homovanillic acid is extracted from the supernatant of the brain homogenate into butyl acetate and later into an aqueous solution and oxidised with potassium ferricyanide to a fluorescent dimer. From the increased concentration of homovanillic acid (HVA) it can be concluded that the derivative under investigation acts like chlorpromazine, i.e. it increases the turnover of dopamine in the basal ganglia. The homovanillic acid titre in untreated rats is arbitrarily fixed at 100%.

rats [2] = assay: Cataleptic action in rats (homolateral extremities crossed position); conditions: rats, intraperitoneal
Description: (§1) The following products were investigated:
(§2) The amimals are considered to be cataleptic when the homolateral extremities remain for at least 10 seconds in the crossed position. The number of cataleptic animals is noted every 30 minutes for 6 hours.

[3] = as above; conditions: rat, in vivo, ip
Description: as §1, §2

Row | Compound | ED50 (mice) [mg/kg] | Quotient ED10 (Blocking of the unconditioned reaction)/ED50 (Blocking of the conditioned reaction) (rats [1]; p.o.) | Increase of HVA (homovanillic acid (HVA); 20 mg/kg p.o.) [%] | ED50 (mice; mice, peroral) [mg/kg] | action in rotating rod test (in words) (mice; mice, peroral) | ED50 (rats [1]; Rattus norvegicus, po, read-out: ED50 (Blocking of the conditioned reaction)) [mg/kg] | neuroleptic action and quality (selectivity) compared with chlorpromazine (in words) (rats [1]; p.o.) | cataleptic action in comparison to chlorpromazine (in words) (rats [2]) | TD50 at 6 h [3] [mg/kg] | Increase of HVA (homovanillic acid (HVA); 50 mg/kg p.o.) [%] | activity in HVA test compared with chlorpromazine (in words) (homovanillic acid (HVA)) | TD50 at 6 h ([3]; rats, intraperitoneal, noted every 30 minutes for 6 hours, read-out: ED50 (dose at which 50% of the animals show catalepsy)) [mg/kg]
1 | CN(C)CCCN1c2ccccc2Sc2ccc(Cl)cc21 [Chlorpromazine, reference compound] | 5 | 3.5 | 321 | – | – | – | – | – | – | – | – | –
2 | O=C1OCCN1CCN1CCN(C2Cc3cc(Cl)ccc3Sc3ccccc32)CC1 (stereo not shown) [Product A, 3-[2-[4-(2-chloro-10,11-dihydro-dibenzo[b,f]thiepin-10-yl)-1-piperazinyl]-ethyl]-2-oxozolidinone maleate] | – | 4.2 | – | 7.9 | strong action | 10 | strong neuroleptic action but also a quality (selectivity) of the neuroleptic action, both of which somewhat exceed that of chlorpromazine | no cataleptic action or only a slight cataleptic action | > 100 | 340 | almost equalizes that of chloropromazine | –
3 | Cc1ccc2c(c1)CC(N1CCN(CCN3CCOC3=O)CC1)c1ccccc1S2.O=C(O)/C=C\C(=O)O (stereo not shown) [Product B, 3-[2-[4-(10,11-dihydro-2-methyl-dibenzo[b,f]thiepin-10-yl)-1-piperazinyl]-ethyl]-2-oxazolidinone maleate] | – | – | – | – | – | – | – | no cataleptic action or only a slight cataleptic action | – | 255 | almost equalizes that of chloropromazine | 70
